PMC3598812, “Evaluation of Anti-Hyperalgesic and Analgesic Effects of Two Benzodiazepines in Human Experimental Pain: A Randomized Placebo-Controlled Study” (PLoS ONE, 2013)

Legend:
Format in all cases: in vivo, human
healthy male volunteers [1] = assay: Cutaneous single electrical stimulation pain threshold; conditions: mean (SD)
Procedure: (§1) Electrical stimulation was performed through electrodes placed distal to the lateral malleolus. A 25 ms, train-of-five, 1 ms, square-wave impulse (perceived as one stimulus), was delivered by a computer-controlled constant current stimulator (Digitimer DS7A, Neurospec, Letchworth Garden City, UK). The current intensity was increased from 1 mA in steps of 0.5 mA until a pain sensation was evoked.
Three assessments were made and the mean of these 3 measurements was used for the data analysis.

healthy male volunteers [2] = assay: Pain rating (VAS) after graded von Frey hair stimulation in the capsaicin hyperalgesic area
Procedure: Additionally, mechanical pain sensitivity was assessed using a set of seven weighted pinprick stimuli to obtain a stimulus-response function. The test was applied 1 cm inside the outer border of the pinprick hyperalgesic area, using a set of 7 graded von Frey hair mechanical stimulators with fixed stimulus intensities (custom-made at Aalborg University, Denmark). The flat contact area of the stimulators has a 0.2 mm diameter, and the 7 stimulators exert forces of 8, 16, 32, 64, 128, 256 and 512 mN. The order of stimulation was defined randomly by computer. The stimulators were applied at a rate of 2 s on/2 s off. Subjects were asked to give a pain rating for each stimulus on a 10 cm VAS. Two assessments for each stimulation were made and the mean of these 2 measurements was used for the data analysis.

healthy male volunteers [3] = assay: Pressure pain detection and tolerance thresholds (pressure algometer, 2nd toe); conditions: mean (SD)
Procedure: Pain detection and tolerance thresholds were measured with an electronic pressure algometer (Somedic, Hörby, Sweden) applied at the center of the pulp of the 2nd toe. […] The pressure was increased from 0 at a rate of 30 kPa/s to a maximum pressure of 1200 kPa. Pain detection threshold was defined as the point at which the pressure sensation turned to pain. Pain tolerance threshold was defined as the point at which the subject felt the pain as intolerable. If the threshold was not reached at 1200 kPa, this value was considered as threshold. Three assessments were made and the mean of these 3 measurements were used for the data analysis.

healthy male volunteers [4] = assay: Cuff algometry (tourniquet cuff on the leg, VAS-time AUC); parameters: AUC of VAS during cuff algometry: unit not given beside the values; conditions: for AUC of VAS during cuff algometry: mean (SD)
From the text: A tourniquet cuff was applied to the middle of the leg, at the level of the heads of the gastrocnemius and soleus muscle. The cuff was applied at the side contralateral to the side of electrical stimulation in order not to interfere with the positioning of the intramuscular electrodes. During stimulation, the volunteer rated the pain intensity on an electronic VAS scale. The cuff was inflated with compressed air until VAS 6 was reached. The maximum allowed inflating pressure was 200 kPa. The pressure was maintained for 10 min or until the subjects rated the pain as intolerable. The area under the curve VAS-time was computed. For those subjects who felt intolerable pain before 10 min, the time when the cuff was deflated was recorded and VAS 10 was extrapolated until 10 min. Additionally, the maximal VAS during inflation was recorded.

healthy male volunteers [5] = assay: Cutaneous repeated (20 stimuli) electrical stimulation, VAS; parameters: AUC of VAS during 20 cutaneous electrical stimuli: unit not given beside the values; conditions: mean (SD); for Maximal VAS during 20 cutaneous electrical stimuli: VAS 0-10
Procedure: The stimulus burst used for single stimulus was repeated for a train of 20 pulses at 2 Hz, at an intensity corresponding to the temporal summation threshold. During this 10 s stimulation, pain intensity was continuously rated by the subject with an electronic VAS, and the area under the curve (AUC) was computed. Additionally, the maximal VAS during stimulation was recorded.

healthy male volunteers [6] = assay: Area of dynamic mechanical hyperalgesia after intradermal capsaicin (cotton wool stroking); conditions: single oral dose (clobazam 20 mg, clonazepam 1 mg, tolterodine 1 mg), mean (SD)
Procedure: The area of dynamic mechanical hyperalgesia was determined by gently stroking a hand-held cotton wool tip on a 1 cm strip of the skin, at a rate of approximately 1 cm/s. Subjects were asked to report when the sensation changed from a non-painful to a painful sensation. The borders of dynamic hyperalgesia were delineated similarly to the determination of static hyperalgesia.

healthy male volunteers [7] = assay: Intramuscular single electrical stimulation pain threshold (tibialis anterior); conditions: mean (SD)
Procedure: as §1
A needle was placed in the tibialis anterior muscle, 14 cm distal from the caudal end of the patella and 20 mm in depth. The same single and repeated stimulation patterns and the same procedure described for cutaneous stimulation were used.

[8] = baseline before medication, per drug session
[9] = single oral dose (clobazam 20 mg, clonazepam 1 mg, tolterodine 1 mg), 30 min after medication
[10] = single oral dose (clobazam 20 mg, clonazepam 1 mg, tolterodine 1 mg), 60 min after medication
[11] = single oral dose (clobazam 20 mg, clonazepam 1 mg, tolterodine 1 mg), 90 min after medication
[12] = single oral dose (clobazam 20 mg, clonazepam 1 mg, tolterodine 1 mg), 120 min after medication
[13] = single oral dose (clobazam 20 mg, clonazepam 1 mg, tolterodine 1 mg), after flumazenil 0.2 mg iv
[14] = VAS 0-10, single oral dose (clobazam 20 mg, clonazepam 1 mg, tolterodine 1 mg), 30 min after medication, mean (SD)
[15] = VAS 0-10, single oral dose (clobazam 20 mg, clonazepam 1 mg, tolterodine 1 mg), 60 min after medication, mean (SD)
[16] = VAS 0-10, single oral dose (clobazam 20 mg, clonazepam 1 mg, tolterodine 1 mg), 90 min after medication, mean (SD)
[17] = VAS 0-10, single oral dose (clobazam 20 mg, clonazepam 1 mg, tolterodine 1 mg), 120 min after medication, mean (SD)
[18] = VAS 0-10, single oral dose (clobazam 20 mg, clonazepam 1 mg, tolterodine 1 mg), after flumazenil 0.2 mg iv, mean (SD)

SMILES: CN1C(=O)CC(=O)N(c2ccccc2)c2cc(Cl)ccc21 [Clobazam]
- Pain threshold after single cutaneous electrical stimulation (healthy male volunteers [1]; [8]): 10.0 (2.9) mA
- Pain threshold after single cutaneous electrical stimulation (healthy male volunteers [1]; [9]): 10.3 (3.6) mA
- Pain threshold after single cutaneous electrical stimulation (healthy male volunteers [1]; [10]): 10.2 (3.8) mA
- Pain threshold after single cutaneous electrical stimulation (healthy male volunteers [1]; [11]): 11.2 (3.3) mA
- Pain threshold after single cutaneous electrical stimulation (healthy male volunteers [1]; [12]): 12.2 (3.9) mA
- Pain threshold after single cutaneous electrical stimulation (healthy male volunteers [1]; [13]): 12.0 (4.3) mA
- VAS after von Frey hair 8 mN (healthy male volunteers [2]; [14]): 1.1 (1.2)
- VAS after von Frey hair 16 mN (healthy male volunteers [2]; [14]): 2.0 (2.1)
- VAS after von Frey hair 32 mN (healthy male volunteers [2]; [14]): 2.0 (1.6)
- VAS after von Frey hair 64 mN (healthy male volunteers [2]; [14]): 2.3 (2.0)
- VAS after von Frey hair 128 mN (healthy male volunteers [2]; [14]): 2.9 (2.0)
- VAS after von Frey hair 256 mN (healthy male volunteers [2]; [14]): 3.3(2.3)
- VAS after von Frey hair 512 mN (healthy male volunteers [2]; [14]): 4.5 (2.5)
- VAS after von Frey hair 8 mN (healthy male volunteers [2]; [15]): 1.9 (3.3)
- VAS after von Frey hair 16 mN (healthy male volunteers [2]; [15]): 2.3 (3.2)
- VAS after von Frey hair 32 mN (healthy male volunteers [2]; [15]): 2.4 (2.8)
- VAS after von Frey hair 64 mN (healthy male volunteers [2]; [15]): 2.5 (2.0)
- VAS after von Frey hair 128 mN (healthy male volunteers [2]; [15]): 3.4 (2.7)
- VAS after von Frey hair 256 mN (healthy male volunteers [2]; [15]): 3.7 (2.6)
- VAS after von Frey hair 512 mN (healthy male volunteers [2]; [15]): 4.8 (2.8)
- VAS after von Frey hair 8 mN (healthy male volunteers [2]; [16]): 1.2 (1.4)
- VAS after von Frey hair 16 mN (healthy male volunteers [2]; [16]): 1.4 (1.6)
- VAS after von Frey hair 32 mN (healthy male volunteers [2]; [16]): 2.1 (2.2)
- VAS after von Frey hair 64 mN (healthy male volunteers [2]; [16]): 2.1 (1.9)
- VAS after von Frey hair 128 mN (healthy male volunteers [2]; [16]): 3.5 (2.3)
- VAS after von Frey hair 256 mN (healthy male volunteers [2]; [16]): 3.9 (2.5)
- VAS after von Frey hair 512 mN (healthy male volunteers [2]; [16]): 4.9 (2.6)
- VAS after von Frey hair 8 mN (healthy male volunteers [2]; [17]): 1.3 (1.4)
- VAS after von Frey hair 16 mN (healthy male volunteers [2]; [17]): 1.3 (1.5)
- VAS after von Frey hair 32 mN (healthy male volunteers [2]; [17]): 1.9 (1.9)
- VAS after von Frey hair 64 mN (healthy male volunteers [2]; [17]): 2.7 (2.7)
- VAS after von Frey hair 128 mN (healthy male volunteers [2]; [17]): 3.0 (2.6)
- VAS after von Frey hair 256 mN (healthy male volunteers [2]; [17]): 3.8 (2.6)
- VAS after von Frey hair 512 mN (healthy male volunteers [2]; [17]): 4.7 (2.7)
- VAS after von Frey hair 8 mN (healthy male volunteers [2]; [18]): 1.1 (1.1)
- VAS after von Frey hair 16 mN (healthy male volunteers [2]; [18]): 1.3 (1.1)
- VAS after von Frey hair 32 mN (healthy male volunteers [2]; [18]): 1.9 (1.9)
- VAS after von Frey hair 64 mN (healthy male volunteers [2]; [18]): 2.2 (1.7)
- VAS after von Frey hair 128 mN (healthy male volunteers [2]; [18]): 2.9 (2.1)
- VAS after von Frey hair 256 mN (healthy male volunteers [2]; [18]): 3.9 (2.2)
- VAS after von Frey hair 512 mN (healthy male volunteers [2]; [18]): 5.1 (2.5)
- VAS after von Frey hair 512 mN (healthy male volunteers [2]; subgroup analysis (n = 8), 30 minutes, mean): 3.2
- VAS after von Frey hair 512 mN (healthy male volunteers [2]; subgroup analysis (n = 8), 120 minutes, mean): 5.1
- Pressure pain detection threshold (healthy male volunteers [3]; [8]): 432 (123) kPa
- Pressure pain detection threshold (healthy male volunteers [3]; [12]): 379 (130) kPa
- Pressure pain detection threshold (healthy male volunteers [3]; [13]): 393 (118) kPa
- AUC of VAS during cuff algometry (healthy male volunteers [4]; [8]): 3446 (539)
- Cuff algometry, overview of peak value or subgroup analysis (healthy male volunteers [4]; overview table, compared to tolterodine): Time factor significant, favouring clobazam and clonazepam compared to tolterodine
- AUC of VAS during cuff algometry (healthy male volunteers [4]; [12]): 3001 (831)
- AUC of VAS during cuff algometry (healthy male volunteers [4]; [13]): 2932 (566)
- Maximal VAS during 20 cutaneous electrical stimuli (healthy male volunteers [5]; [8]): 4.7 (1.8)
- Maximal VAS during 20 cutaneous electrical stimuli (healthy male volunteers [5]; [9]): 4.9 (2.2)
- Maximal VAS during 20 cutaneous electrical stimuli (healthy male volunteers [5]; [10]): 4.7 (1.9)
- Maximal VAS during 20 cutaneous electrical stimuli (healthy male volunteers [5]; [11]): 4.3 (2.0)
- Maximal VAS during 20 cutaneous electrical stimuli (healthy male volunteers [5]; [12]): 4.2 (1.8)
- Maximal VAS during 20 cutaneous electrical stimuli (healthy male volunteers [5]; [13]): 4.5 (1.7)
- AUC of VAS during 20 cutaneous electrical stimuli (healthy male volunteers [5]; [8]): 332 (142)
- AUC of VAS during 20 cutaneous electrical stimuli (healthy male volunteers [5]; [9]): 338 (152)
- AUC of VAS during 20 cutaneous electrical stimuli (healthy male volunteers [5]; [10]): 341 (167)
- AUC of VAS during 20 cutaneous electrical stimuli (healthy male volunteers [5]; [11]): 328 (169)
- AUC of VAS during 20 cutaneous electrical stimuli (healthy male volunteers [5]; [12]): 314 (146)
- AUC of VAS during 20 cutaneous electrical stimuli (healthy male volunteers [5]; [13]): 339 (150)
- Area of dynamic hyperalgesia (healthy male volunteers [6]; 30 min after medication): 22.3 (13.2) cm^2
- Area of dynamic hyperalgesia (healthy male volunteers [6]; 60 min after medication): 22.9 (12.4) cm^2
- Area of dynamic hyperalgesia (healthy male volunteers [6]; 90 min after medication): 22.4 (13.6) cm^2
- Area of dynamic hyperalgesia (healthy male volunteers [6]; 120 min after medication): 16.7 (13.0) cm^2
- Area of dynamic hyperalgesia (healthy male volunteers [6]; after flumazenil 0.2 mg iv): 21.3 (14.6) cm^2
- Pain threshold after single intramuscular electrical stimulation (healthy male volunteers [7]; [8]): 1.7 (1.2) mA
- Pain threshold after single intramuscular electrical stimulation (healthy male volunteers [7]; [12]): 3.1 (4.6) mA
- Pain threshold after single intramuscular electrical stimulation (healthy male volunteers [7]; [13]): 2.5 (2.1) mA
